Data from article PMC2784364, “VX-166: a novel potent small molecule caspase inhibitor as a potential therapy for sepsis” (Critical Care, 2009).
Where two headings read alike, the source gives them in different places.

Columns and labels:
[1] = Counterscreening panel (MDS Pharma Services); settings: 5 μM, data not shown
Method: Active recombinant caspase-1, -3, -4, -7 and -8 were prepared as described previously. Caspase-2 was purchased from Biomol (Exeter, UK), caspase-6 from BD Biosciences (Oxford, UK), caspase-9 from Europa Bioproducts Ltd. (Cambridge, UK) and caspase-10 from Chemicon International Inc. (Harrow, UK). Cathepsin B and granzyme B were purchased from Merck Biosciences Ltd. (Nottingham, UK). Fluorogenic protease substrates were purchased from Bachem Ltd. (St. Helens, UK). All reactions were carried out at 37°C using a Molecular Devices (Wokingham, UK) Gemini plate-reader at 460 nm (excitation wavelength of 390 nm). Caspase inhibition assays were conducted, with minor modifications, as described by Margolin and colleagues. Irreversible kinetics were analysed by calculations of second-order inactivation rate constants (k) using GraphPad (La Jolla, CA, USA) Prism 4.0 software. A larger number for an inactivation rate constant indicates a greater degree of inactivation. To determine the inhibitory effect on cathepsin B, 4.25 nM of the enzyme were added to 250 μM z-RR-AMC in 10 mM 2-morpholino-ethanesulfonic acid pH 6.0, 1 mM DTT, 1 mM EDTA and 0.03% Brij35 in the presence or absence of VX-166 and the reaction monitored continuously over 15 minutes. Granzyme B was assayed, with minor modifications, as described by Thornberry and colleagues. […]

[2] = system: Sprague-Dawley rats; assay: Caecal ligation and puncture in the rat, survival; type: in vivo; settings: rat CLP; for survival at day 10: control 40%
Method: CLP studies were performed in accordance with the National Institutes of Health guidelines for the use of experimental animals and were approved by the Institutional Animal Care and Use Committee of the Feinstein Institute for Medical Research. Adult male Sprague-Dawley rats (weighing 275 to 325 g, Charles River Laboratories, Wilmington, MA, USA) were fasted overnight then anaesthetised with isoflurane. The caecum was exposed via a 2 cm midline incision. It was ligated just distal to the ileocaecal valve, then punctured twice with an 18-gauge needle and gently squeezed to release a small amount of faecal material to ensure patency of the perforation sites before the abdominal incision was closed. Sham-operated rats underwent the same procedure with the exception that the caecum was neither ligated nor punctured. Animals received subcutaneous fluids (30 ml/kg saline) immediately after the procedure. No antibiotics were administered. In the 7 and 10 day survival studies animals were re-anaesthetised 20 hours after CLP, the perforated caecum was removed and the abdominal cavity washed twice with 40 ml of warm, sterilised saline. The abdominal cavity was closed, anaesthetics withdrawn and rats returned to their cages where they were allowed free access to food and water. In the 20 hour endpoint study the caecum was not removed. In this study blood samples were collected by cardiac puncture under terminal anaesthesia into heparinised syringes for the subsequent measurement of IL-1β and bacterial endotoxin, while the thymus was removed for analysis of thymocyte apoptosis.
Alzet® mini-osmotic pumps (Durect Corporation, Cupertino, CA, USA) were used for continuous delivery of VX-166 or vehicle (25% dimethyl sulphoxide: 75% propylene glycol). Pumps with a 2 ml reservoir capacity and a 10 μl//h delivery rate were used in all studies. These pumps are designed to deliver for seven days and so would have expired two to three days before the end of the 10 day survival studies. The mini-osmotic pumps were filled with VX-166 (5 to 25 mg/ml or vehicle) and primed overnight at 37°C prior to subcutaneous implantation in anaesthetised rats. The 25 mg/ml concentration of VX-166 equates to an approximate dose of 0.83 mg/kg/h for a 300 g rat. The pumps were implanted immediately following CLP, except in the delayed onset of treatment study in which pumps were implanted either immediately following CLP (0 hour) or 3 or 8 hours following CLP. Sham-operated rats were implanted with vehicle filled mini-osmotic pumps.

[3] = system: IL-1β release from peripheral blood mononuclear cells; assay: IL-1β release from LPS-treated PBMC; type: cell-based
Method: (§1) Peripheral blood mononuclear cells (PBMC) from healthy donors were isolated by Ficoll-Paque gradient centrifugation from buffy coats obtained from the National Blood Transfusion Service (Bristol, UK). For IL-1β release, 5 × 10^5 cells/ml were then stimulated with 50 ng/ml lipopolysaccharide (LPS) from Escherichia coli (Sigma-Aldrich Ltd., Poole, UK) in the presence or absence of VX-166 and incubated for 18 hours. Secretion of IL-1β into the supernatant was determined by ELISA (R&D Systems, Abingdon, UK) following the manufacturer's instructions. For IL-18 release, 7.5 × 10^5 cells/ml were stimulated with 6.25 × 10^-4% (w/v) Staphylococcus aureus cell suspension (SAC; Sigma-Aldrich Ltd., Poole, UK) in the presence or absence of VX-166 and incubated overnight. The IL-18 content in the supernatants was quantified by ELISA (Caltag-MedSystems Ltd., Buckingham, UK) following the manufacturer's instructions. In both assays PBMC viability was assessed after the 18 hours incubation time using MTS assay (Promega UK Ltd., Southampton, UK) to ensure that the reduction in cytokine release was not caused by a cytotoxic effect of the compound.

[4] = system: human aorta endothelial cells (HAEC); assay: Apoptosis assay in human aorta endothelial cells, serum withdrawal, DNA fragmentation; type: cell-based; settings: Endothelial cell, Serum withdrawal and nutrient deprivation, 48 hours, n = 4, read-out: IC50, inhibition of apoptosis
Method: Human aorta endothelial cells (HAEC) were purchased from Cambrex Bio Science Wokingham Ltd., (Wokingham, UK) and cultured as recommended by the supplier. Apoptosis was induced in 5 × 10^4 cells/ml by addition of medium deprived of serum and growth factors. VX-166 was added at a range of concentrations as described above and the cells incubated for 48 hours at 37°C in an atmosphere of 5% CO2/95% humidity. Apoptosis was measured using a Cell Death Detection ELISA kit (Roche Diagnostics Ltd., Lewes, UK) following the manufacturer's instructions.

[5] = system: IL-18 release from peripheral blood mononuclear cells; assay: IL-18 release from SAC-treated PBMC; type: cell-based; settings: overnight
Method: as §1

CCC(C(=O)NC(CC(=O)O)C(=O)COc1c(F)c(F)cc(F)c1F)n1cccc(NC(=O)OC)c1=O (centres unmarked) [VX-166]
cross-reactivity in panel of 83 enzymes, ion channels and receptors (28 proteases) [1]: No significant cross-reactivity
survival over 10 days compared with vehicle control, second study ([2]; 25 mg/ml mini-osmotic pump immediately after CLP, n = 16): improved survival
survival at day 7 ([2]; 25 mg/ml mini-osmotic pump implanted immediately following CLP, n = 12, control 25%): 67%
survival at day 10 ([2]; 25 mg/ml pump started 0 hours after CLP, n = 12, P = 0.026): 83%
survival at day 10 ([2]; 25 mg/ml pump started 3 hours after CLP, n = 12, P = 0.009): 92%
survival at day 10 ([2]; 25 mg/ml pump started 8 hours after CLP, n = 12, P = 0.19): 66%
IC50 ([3]; Homo sapiens, PBMC, 18 h, n = 4, read-out: IC50 ± SD, inhibition of IL-1β release): < 500 nM
IC50 ([3]; LPS-treated human PBMC, 18 hours, n = 4, read-out: IC50 ± SD, inhibition of IL-1β release): 260 ± 120 nM
IC50 [4]: 310 ± 70 nM
IC50 ([5]; Homo sapiens, PBMC, n = 4, read-out: IC50 ± SD, inhibition of IL-18 release): < 500 nM
IC50 ([5]; SAC-treated human PBMC, n = 4, read-out: IC50 ± SD, inhibition of IL-18 release): 450 ± 170 nM
